Numbers after ± are expanded uncertainties.
Assay: wn = mass fraction of the nth substance listed
Settings: Liquid, Vibrating tube method

CC(C)(N)CO [2-amino-2-methylpropan-1-ol] + O
Settings	mass density [kg/m3]
323.09 K, 19985 kPa, w1 = 0.4976	978 ± 1.3
323.09 K, 20939 kPa, w1 = 0.4976	978.4 ± 1.3
323.1 K, 513 kPa, w1 = 0.1997	984.2 ± 0.5
323.1 K, 1002 kPa, w1 = 0.4002	978 ± 0.9
323.1 K, 1007 kPa, w1 = 0.1997	984.4 ± 0.5
323.1 K, 2005 kPa, w1 = 0.1997	984.8 ± 0.5
323.1 K, 2023 kPa, w1 = 0.4002	978.4 ± 0.9
323.1 K, 3001 kPa, w1 = 0.4002	978.9 ± 0.9
323.1 K, 3005 kPa, w1 = 0.1997	985.1 ± 0.5
323.1 K, 4001 kPa, w1 = 0.1997	985.5 ± 0.5
323.1 K, 4011 kPa, w1 = 0.4002	979.2 ± 0.9
323.1 K, 5000 kPa, w1 = 0.1997	986 ± 0.5
323.1 K, 5000 kPa, w1 = 0.4002	979.7 ± 0.9
323.1 K, 6002 kPa, w1 = 0.4002	980 ± 0.9
323.1 K, 6003 kPa, w1 = 0.1997	986.3 ± 0.5
323.1 K, 6999 kPa, w1 = 0.4002	980.4 ± 0.9
323.1 K, 7003 kPa, w1 = 0.1997	986.8 ± 0.5
323.1 K, 7990 kPa, w1 = 0.4002	980.8 ± 0.9
323.1 K, 8001 kPa, w1 = 0.1997	987.1 ± 0.5
323.1 K, 9002 kPa, w1 = 0.4002	981.2 ± 0.9
323.1 K, 9013 kPa, w1 = 0.1997	987.5 ± 0.5
323.1 K, 9990 kPa, w1 = 0.4002	981.6 ± 0.9
323.1 K, 10002 kPa, w1 = 0.1997	987.9 ± 0.5
323.1 K, 10992 kPa, w1 = 0.4002	982 ± 0.9
323.1 K, 11001 kPa, w1 = 0.1997	988.3 ± 0.5
323.1 K, 11996 kPa, w1 = 0.4002	982.5 ± 0.9
323.1 K, 12004 kPa, w1 = 0.1997	988.7 ± 0.5
323.1 K, 12990 kPa, w1 = 0.4002	982.8 ± 0.9
323.1 K, 13009 kPa, w1 = 0.1997	989 ± 0.5
323.1 K, 13994 kPa, w1 = 0.4002	983.2 ± 0.9
323.1 K, 13999 kPa, w1 = 0.1997	989.4 ± 0.5
323.1 K, 14992 kPa, w1 = 0.4002	983.6 ± 0.9
323.1 K, 15001 kPa, w1 = 0.1997	989.8 ± 0.5
323.1 K, 15995 kPa, w1 = 0.4002	984 ± 0.9
323.1 K, 16002 kPa, w1 = 0.1997	990.2 ± 0.5
323.1 K, 16986 kPa, w1 = 0.4002	984.4 ± 0.9
323.1 K, 17001 kPa, w1 = 0.1997	990.6 ± 0.5
323.1 K, 17993 kPa, w1 = 0.4002	984.8 ± 0.9
323.1 K, 18004 kPa, w1 = 0.1997	991 ± 0.5
323.1 K, 18995 kPa, w1 = 0.4002	985.1 ± 0.9
323.1 K, 19000 kPa, w1 = 0.1997	991.4 ± 0.5
323.1 K, 19992 kPa, w1 = 0.4002	985.5 ± 0.9
323.1 K, 20030 kPa, w1 = 0.1997	991.7 ± 0.5
323.1 K, 21005 kPa, w1 = 0.1997	992.1 ± 0.5
323.1 K, 21297 kPa, w1 = 0.4002	986 ± 0.9
323.1 K, 22004 kPa, w1 = 0.1997	992.5 ± 0.5
323.1 K, 22998 kPa, w1 = 0.1997	992.9 ± 0.5
323.1 K, 24004 kPa, w1 = 0.1997	993.3 ± 0.5
332.01 K, 1005 kPa, w1 = 0.2821	976.1 ± 0.6
332.01 K, 2004 kPa, w1 = 0.2821	976.5 ± 0.6
332.01 K, 2997 kPa, w1 = 0.2821	977 ± 0.6
332.01 K, 4002 kPa, w1 = 0.2821	977.4 ± 0.6
332.01 K, 5002 kPa, w1 = 0.2821	977.8 ± 0.6
332.01 K, 5997 kPa, w1 = 0.2821	978.2 ± 0.6
332.01 K, 6999 kPa, w1 = 0.2821	978.6 ± 0.6
332.01 K, 7996 kPa, w1 = 0.2821	979 ± 0.6
332.01 K, 8992 kPa, w1 = 0.2821	979.4 ± 0.6
332.01 K, 9994 kPa, w1 = 0.2821	979.8 ± 0.6
332.01 K, 11040 kPa, w1 = 0.2821	980.2 ± 0.6
332.01 K, 11992 kPa, w1 = 0.2821	980.6 ± 0.6
332.01 K, 12990 kPa, w1 = 0.2821	981 ± 0.6
332.01 K, 13989 kPa, w1 = 0.2821	981.4 ± 0.6
332.01 K, 14989 kPa, w1 = 0.2821	981.8 ± 0.6
332.01 K, 15990 kPa, w1 = 0.2821	982.2 ± 0.6
332.01 K, 17000 kPa, w1 = 0.2821	982.5 ± 0.6
332.01 K, 17987 kPa, w1 = 0.2821	982.9 ± 0.6
332.01 K, 18991 kPa, w1 = 0.2821	983.3 ± 0.6
332.01 K, 19984 kPa, w1 = 0.2821	983.7 ± 0.6
332.01 K, 20986 kPa, w1 = 0.2821	984.1 ± 0.6
332.99 K, 503 kPa, w1 = 0.1997	978.2 ± 0.5
332.99 K, 1000 kPa, w1 = 0.1997	978.5 ± 0.5
332.99 K, 2000 kPa, w1 = 0.1997	978.7 ± 0.5
332.99 K, 3000 kPa, w1 = 0.1997	979.2 ± 0.5
332.99 K, 4000 kPa, w1 = 0.1997	979.6 ± 0.5
332.99 K, 5001 kPa, w1 = 0.1997	979.9 ± 0.5
332.99 K, 6000 kPa, w1 = 0.1997	980.4 ± 0.5
332.99 K, 7001 kPa, w1 = 0.1997	980.8 ± 0.5
332.99 K, 8001 kPa, w1 = 0.1997	981.2 ± 0.5
332.99 K, 9009 kPa, w1 = 0.1997	981.5 ± 0.5
332.99 K, 10003 kPa, w1 = 0.1997	982 ± 0.5
332.99 K, 11001 kPa, w1 = 0.1997	982.3 ± 0.5
332.99 K, 12000 kPa, w1 = 0.1997	982.8 ± 0.5
332.99 K, 13000 kPa, w1 = 0.1997	983.2 ± 0.5
332.99 K, 14000 kPa, w1 = 0.1997	983.6 ± 0.5
332.99 K, 14999 kPa, w1 = 0.1997	984 ± 0.5
332.99 K, 16001 kPa, w1 = 0.1997	984.3 ± 0.5
332.99 K, 17001 kPa, w1 = 0.1997	984.8 ± 0.5
332.99 K, 18006 kPa, w1 = 0.1997	985.2 ± 0.5
332.99 K, 19001 kPa, w1 = 0.1997	985.5 ± 0.5
332.99 K, 20029 kPa, w1 = 0.1997	985.9 ± 0.5
332.99 K, 21005 kPa, w1 = 0.1997	986.3 ± 0.5
332.99 K, 22004 kPa, w1 = 0.1997	986.7 ± 0.5
332.99 K, 23000 kPa, w1 = 0.1997	987 ± 0.5
332.99 K, 24008 kPa, w1 = 0.1997	987.4 ± 0.5
333.04 K, 1029 kPa, w1 = 0.4976	961.9 ± 1.2
333.04 K, 1994 kPa, w1 = 0.4976	962.4 ± 1.2
333.04 K, 3005 kPa, w1 = 0.4976	962.8 ± 1.2
333.04 K, 4012 kPa, w1 = 0.4976	963.3 ± 1.2
333.04 K, 4995 kPa, w1 = 0.4976	963.7 ± 1.3
333.04 K, 5995 kPa, w1 = 0.4976	964.1 ± 1.3
333.04 K, 7056 kPa, w1 = 0.4976	964.6 ± 1.3
333.04 K, 7994 kPa, w1 = 0.4976	965 ± 1.3
333.04 K, 8994 kPa, w1 = 0.4976	965.5 ± 1.3
333.04 K, 9997 kPa, w1 = 0.4976	965.9 ± 1.3
333.04 K, 10996 kPa, w1 = 0.4976	966.3 ± 1.3
333.04 K, 11991 kPa, w1 = 0.4976	966.7 ± 1.3
333.04 K, 12988 kPa, w1 = 0.4976	967.2 ± 1.3
333.04 K, 13992 kPa, w1 = 0.4976	967.6 ± 1.3
333.04 K, 14999 kPa, w1 = 0.4976	968 ± 1.3
333.04 K, 15982 kPa, w1 = 0.4976	968.4 ± 1.3
333.04 K, 16996 kPa, w1 = 0.4976	968.9 ± 1.3
333.04 K, 17988 kPa, w1 = 0.4976	969.3 ± 1.3
333.04 K, 18986 kPa, w1 = 0.4976	969.7 ± 1.3
333.04 K, 19987 kPa, w1 = 0.4976	970.1 ± 1.3
333.04 K, 21093 kPa, w1 = 0.4976	970.6 ± 1.3
333.05 K, 1028 kPa, w1 = 0.4002	970.4 ± 0.9
333.05 K, 1998 kPa, w1 = 0.4002	970.8 ± 0.9
333.05 K, 3001 kPa, w1 = 0.4002	971.2 ± 0.9
333.05 K, 4010 kPa, w1 = 0.4002	971.6 ± 0.9
333.05 K, 5003 kPa, w1 = 0.4002	972.1 ± 0.9
333.05 K, 5997 kPa, w1 = 0.4002	972.5 ± 0.9
333.05 K, 7000 kPa, w1 = 0.4002	972.9 ± 0.9
333.05 K, 8010 kPa, w1 = 0.4002	973.3 ± 0.9
333.05 K, 8996 kPa, w1 = 0.4002	973.7 ± 0.9
333.05 K, 9998 kPa, w1 = 0.4002	974.2 ± 0.9
333.05 K, 10998 kPa, w1 = 0.4002	974.6 ± 0.9
333.05 K, 12011 kPa, w1 = 0.4002	975 ± 0.9
333.05 K, 13000 kPa, w1 = 0.4002	975.4 ± 0.9
333.05 K, 13987 kPa, w1 = 0.4002	975.8 ± 0.9
